Measurements: patent US20030129629A1, “Methods and compositions for the identification, assessment, prevention, and therapy of human cancers” (Millennium Pharmaceuticals, Inc., priority 2000, published 2003)
Where two headings read alike, the source gives them in different places.

Key:
[1] = system: tumor; conditions: animal models; cited from earlier work
[2] = system: 60 cancer cell lines (NCI 60 cancer cell line series); conditions: cited from earlier work
[3] = system: 60 cancer cell lines (NCI 60 cancer cell line series); assay: NCI-DTP in vitro cancer screen, sulforhodamine B (SRB) growth inhibition, 48 hour exposure; type: cell-based, human
Procedure, shortened: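 Potency is given as mean −log{GI50} from dose–response curves, manually binned into Low, Medium or High sensitivity. Sixty NCI-DTP tumour lines were treated 48 h with a duplicate, five-dose, ten-fold dilution series, and growth read by SRB staining of cell mass.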

CC(=O)O[C@@]12CO[C@@H]1C[C@H](O)[C@@]1(C)C(=O)[C@H](O)C3=C(C)[C@@H](OC(=O)[C@H](O)[C@@H](NC(=O)OC(C)(C)C)c4ccccc4)C[C@@](O)([C@@H](OC(=O)c4ccccc4)[C@H]21)C3(C)C [Taxotere, docetaxel]
anti-tumor activity [1]: good anti-tumor activity

COc1cc([C@@H]2c3cc4c(cc3[C@@H](O[C@@H]3O[C@@H]5CO[C@@H](C)O[C@H]5[C@H](O)[C@H]3O)[C@H]3COC(=O)[C@H]23)OCO4)cc(OC)c1O [Etoposide]
−Log (GI50) ([2]; Melanoma SK-MEL-2 CL10005): 4.5
−Log (GI50) ([2]; Melanoma SK-MEL-5 CL10007): 5.0
−Log (GI50) ([2]; Melanoma SK-MEL-28 CL10008): 4.4
−Log (GI50) ([2]; Melanoma UACC-62 CL10020): 4.9
−Log (GI50) ([2]; Melanoma UACC-257 CL10021): 4.2
−Log (GI50) ([2]; NSCLC A549/ATCC CL1004): 5.2
−Log (GI50) ([2]; NSCLC EKVX CL1008): 4.4
−Log (GI50) ([2]; NSCLC HOP-62 CL1026): 5.5
−Log (GI50) ([2]; NSCLC HOP-92 CL1029): 4.8
−Log (GI50) ([2]; NSCLC NCI-H226 CL1013): 5.2
classification of cell line as Low(1), Medium(2), High(3) sensitivity to compound ([3]; Breast BT-549 CL5013): 2
classification of cell line as Low(1), Medium(2), High(3) sensitivity to compound ([3]; Breast HS-578T CL5006): 3
classification of cell line as Low(1), Medium(2), High(3) sensitivity to compound ([3]; Breast MCF7(I) CL5001): 2
classification of cell line as Low(1), Medium(2), High(3) sensitivity to compound ([3]; Breast MCF7/ADRr CL5002): 1
classification of cell line as Low(1), Medium(2), High(3) sensitivity to compound ([3]; Breast MDA-MB-231 CL5005): 2
classification of cell line as Low(1), Medium(2), High(3) sensitivity to compound ([3]; Breast MDA-MB-435 CL5011): 2
classification of cell line as Low(1), Medium(2), High(3) sensitivity to compound ([3]; Breast MDA-N CL5012): 3
classification of cell line as Low(1), Medium(2), High(3) sensitivity to compound ([3]; Breast T-47D CL5014): 3
classification of cell line as Low(1), Medium(2), High(3) sensitivity to compound ([3]; CNS SF-268 CL12014): 2
classification of cell line as Low(1), Medium(2), High(3) sensitivity to compound ([3]; CNS SF-295 CL12015): 2
classification of cell line as Low(1), Medium(2), High(3) sensitivity to compound ([3]; CNS SF-539 CL12016): 2
classification of cell line as Low(1), Medium(2), High(3) sensitivity to compound ([3]; CNS SNB-19 CL12002): 2
classification of cell line as Low(1), Medium(2), High(3) sensitivity to compound ([3]; CNS SNB-75(I) CL12005): 2
classification of cell line as Low(1), Medium(2), High(3) sensitivity to compound ([3]; CNS U251(I) CL12009): 2
classification of cell line as Low(1), Medium(2), High(3) sensitivity to compound ([3]; Colon COLO-250 CL4010): 1
classification of cell line as Low(1), Medium(2), High(3) sensitivity to compound ([3]; Colon HCC-2998 CL4002): 2
classification of cell line as Low(1), Medium(2), High(3) sensitivity to compound ([3]; Colon HCT-15 CL4015): 2
classification of cell line as Low(1), Medium(2), High(3) sensitivity to compound ([3]; Colon HCT-116 CL4003): 2
classification of cell line as Low(1), Medium(2), High(3) sensitivity to compound ([3]; Colon HT29(I) CL4001): 1
classification of cell line as Low(1), Medium(2), High(3) sensitivity to compound ([3]; Colon KM12 CL4017): 2
classification of cell line as Low(1), Medium(2), High(3) sensitivity to compound ([3]; Colon SW-620 CL4009): 2
classification of cell line as Low(1), Medium(2), High(3) sensitivity to compound ([3]; Leukemia CCRF-CEM(I) CL7003): 2
classification of cell line as Low(1), Medium(2), High(3) sensitivity to compound ([3]; Leukemia HL-60(I) CL7008): 2
classification of cell line as Low(1), Medium(2), High(3) sensitivity to compound ([3]; Leukemia K562(I) CL7005): 2
classification of cell line as Low(1), Medium(2), High(3) sensitivity to compound ([3]; Leukemia MOLT-4 CL7006): 3
classification of cell line as Low(1), Medium(2), High(3) sensitivity to compound ([3]; Leukemia RPMI-8226(I) CL7010): 2
classification of cell line as Low(1), Medium(2), High(3) sensitivity to compound ([3]; Leukemia SR CL7019): 3
classification of cell line as Low(1), Medium(2), High(3) sensitivity to compound ([3]; Melanoma LOX IMVI CL10001): 2
classification of cell line as Low(1), Medium(2), High(3) sensitivity to compound ([3]; Melanoma M14 CL10014): 3
classification of cell line as Low(1), Medium(2), High(3) sensitivity to compound ([3]; Melanoma MALME-3M CL10002): 2
classification of cell line as Low(1), Medium(2), High(3) sensitivity to compound ([3]; Melanoma SK-MEL-2 CL10005): 2
classification of cell line as Low(1), Medium(2), High(3) sensitivity to compound ([3]; Melanoma SK-MEL-28 CL10008): 1
sensitivity classification Low(1)/Medium(2)/High(3) ([3]; NSCLC NCI-H23(I) CL1001): 2
sensitivity classification Low(1)/Medium(2)/High(3) ([3]; NSCLC NCI-H332M CL1017): 1
sensitivity classification Low(1)/Medium(2)/High(3) ([3]; NSCLC NCI-H460 CL1021): 3
sensitivity classification Low(1)/Medium(2)/High(3) ([3]; NSCLC NCI-H522 CL1003): 2
sensitivity classification Low(1)/Medium(2)/High(3) ([3]; Ovarian IGROV1 CL6010): 1
sensitivity classification Low(1)/Medium(2)/High(3) ([3]; Ovarian OVCAR-3 CL6001): 1
sensitivity classification Low(1)/Medium(2)/High(3) ([3]; Ovarian OVCAR-4 CL6002): 1
sensitivity classification Low(1)/Medium(2)/High(3) ([3]; Ovarian OVCAR-5 CL6003): 1
sensitivity classification Low(1)/Medium(2)/High(3) ([3]; Ovarian OVCAR-8 CL6005): 2
sensitivity classification Low(1)/Medium(2)/High(3) ([3]; Ovarian SK-OV-3 CL6011): 2
sensitivity classification Low(1)/Medium(2)/High(3) ([3]; Prostate DU-145 CL11003): 3
sensitivity classification Low(1)/Medium(2)/High(3) ([3]; Prostate PC-3(I) CL11001): 3
sensitivity classification Low(1)/Medium(2)/High(3) ([3]; Renal 786-0 CL9018): 2
sensitivity classification Low(1)/Medium(2)/High(3) ([3]; Renal A498 CL9013): 2
sensitivity classification Low(1)/Medium(2)/High(3) ([3]; Renal ACHN CL9023): 3
sensitivity classification Low(1)/Medium(2)/High(3) ([3]; Renal CAKI-1 CL9015): 2
sensitivity classification Low(1)/Medium(2)/High(3) ([3]; Renal RXF-393 CL9016): 2
sensitivity classification Low(1)/Medium(2)/High(3) ([3]; Renal SN12C CL9008): 2
sensitivity classification Low(1)/Medium(2)/High(3) ([3]; Renal TK10 CL9024): 2
sensitivity classification Low(1)/Medium(2)/High(3) ([3]; Renal UO-31 CL9004): 1
